Data as given in ChEMBL document CHEMBL1201862, “PubChem BioAssay data set” (2004).
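Assay format: 96-well plates, 48-hour exposure. At the GI50, growth is halved.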 Activity calls are given as the source filed them. Rule as the data show it: active = GI50 up to about 1.1 µM and inactive = higher.

Experiments:
Assay in all cases: NCI-60 cell line screen, 48 h
CCRF-CEM = system: CCRF-CEM
BT-549 = system: BT-549
ACHN = system: ACHN
M14 = system: M14
SK-MEL-28 = system: SK-MEL-28
HL-60 = system: HL-60
SK-MEL-5 = system: SK-MEL-5
SNB-19 = system: SNB-19
RPMI-8226 = system: RPMI-8226
MOLT-4 = system: MOLT-4
K562 = system: K562
SK-OV-3 = system: SK-OV-3
NCI-H226 = system: NCI-H226
Hs-578T = system: Hs-578T
RXF 393 = system: RXF 393
CAKI-1 = system: CAKI-1
UO-31 = system: UO-31
NCI-H23 = system: NCI-H23
HCT-15 = system: HCT-15
HCC 2998 = system: HCC 2998
SF-268 = system: SF-268
HCT-116 = system: HCT-116
MCF7 = system: MCF7
A549 = system: A549
OVCAR-3 = system: OVCAR-3
T47D = system: T47D
MDA-N = system: MDA-N
HT-29 = system: HT-29
SF-539 = system: SF-539
MDA-MB-435 = system: MDA-MB-435
UACC-257 = system: UACC-257
OVCAR-5 = system: OVCAR-5
U-251 = system: U-251
COLO 205 = system: COLO 205
NCI-H460 = system: NCI-H460
SN12C = system: SN12C
HOP-62 = system: HOP-62
HOP-92 = system: HOP-92
786-0 = system: 786-0
A498 = system: A498
IGROV-1 = system: IGROV-1
SR = system: SR
NCI/ADR-RES = system: NCI/ADR-RES
DU-145 = system: DU-145
KM12 = system: KM12
TK-10 = system: TK-10
SF-295 = system: SF-295
MDA-MB-231 = system: MDA-MB-231
NCI-H522 = system: NCI-H522
OVCAR-8 = system: OVCAR-8
UACC-62 = system: UACC-62
PC-3 = system: PC-3
LOX IMVI = system: LOX IMVI
SK-MEL-2 = system: SK-MEL-2
SNB-75 = system: SNB-75
EKVX = system: EKVX
SW-620 = system: SW-620
OVCAR-4 = system: OVCAR-4
Malme-3M = system: Malme-3M

CC(C)OC(=O)c1ccc(NCc2cc(O)ccc2O)cc1Cl
GI50 (CCRF-CEM): 0.258 µM (active)
GI50 (BT-549): 0.327 µM (active)
GI50 (ACHN): 1.78 µM (inactive)
GI50 (M14): 7.13 µM (inactive)
GI50 (SK-MEL-28): 4.28 µM (inactive)
GI50 (HL-60): 0.364 µM (active)
GI50 (SK-MEL-5): 2.73 µM (inactive)
GI50 (SNB-19): 2.64 µM (inactive)
GI50 (RPMI-8226): 0.202 µM (active)
GI50 (MOLT-4): 0.695 µM (active)
GI50 (K562): 0.501 µM (active)
GI50 (SK-OV-3): 7.21 µM (inactive)
GI50 (NCI-H226): 8.22 µM (inactive)
GI50 (Hs-578T): 23.7 µM (inactive)
GI50 (RXF 393): 2.61 µM (inactive)
GI50 (CAKI-1): 0.861 µM (active)
GI50 (UO-31): 0.993 µM (active)
GI50 (NCI-H23): 4.39 µM (inactive)
GI50 (HCT-15): 0.798 µM
GI50 (HCC 2998): 3.59 µM (inactive)
GI50 (SF-268): 13.1 µM (inactive)
GI50 (HCT-116): 8.87 µM (inactive)
GI50 (MCF7): 3.47 µM (inactive)
GI50 (A549): 12 µM (inactive)
GI50 (OVCAR-3): 2.56 µM (inactive)
GI50 (T47D): 1.56 µM (inactive)
GI50 (MDA-N): 3.18 µM (inactive)
GI50 (HT-29): 9.57 µM (inactive)
GI50 (SF-539): 1.75 µM (inactive)
GI50 (MDA-MB-435): 2.15 µM (inactive)
GI50 (UACC-257): 11.4 µM (inactive)
GI50 (OVCAR-5): 8.43 µM (inactive)
GI50 (U-251): 3.95 µM (inactive)
GI50 (COLO 205): 2.3 µM (inactive)
GI50 (NCI-H460): 6.08 µM (inactive)
GI50 (SN12C): 4 µM (inactive)
GI50 (HOP-62): 18.9 µM (inactive)
GI50 (HOP-92): 1.51 µM (inactive)
GI50 (786-0): 2.09 µM (inactive)
GI50 (A498): 11 µM (inactive)
GI50 (IGROV-1): 2.31 µM (inactive)
GI50 (SR): 0.695 µM (active)
GI50 (NCI/ADR-RES): 2.78 µM (inactive)
GI50 (DU-145): 9.08 µM (inactive)
GI50 (KM12): 3.64 µM (inactive)
GI50 (TK-10): 6.98 µM (inactive)
GI50 (SF-295): 12.2 µM (inactive)
GI50 (MDA-MB-231): 4.18 µM (inactive)
GI50 (NCI-H522): 0.206 µM (active)
GI50 (OVCAR-8): 2.77 µM (inactive)
GI50 (UACC-62): 5.26 µM (inactive)
GI50 (PC-3): 2.57 µM (inactive)
GI50 (LOX IMVI): 3.27 µM (inactive)
GI50 (SK-MEL-2): 15.1 µM (inactive)
GI50 (SNB-75): 6.73 µM (inactive)
GI50 (EKVX): 4.92 µM (inactive)
GI50 (SW-620): 2.72 µM (inactive)
GI50 (OVCAR-4): 4.89 µM (inactive)

Fc1ccc2c(c1)nc1n2C(c2c(Cl)cccc2Cl)SC1 (centres undefined)
GI50 (BT-549): 16.7 µM (inactive)
GI50 (ACHN): 16.9 µM (inactive)
GI50 (M14): 16.4 µM (inactive)
GI50 (SK-MEL-28): 10.8 µM (inactive)
GI50 (HL-60): 12.3 µM (inactive)
GI50 (SK-MEL-5): 8.71 µM (inactive)
GI50 (SNB-19): 14.1 µM (inactive)
GI50 (RPMI-8226): 13.4 µM (inactive)
GI50 (MOLT-4): 8.02 µM (inactive)
GI50 (SK-OV-3): 14.8 µM (inactive)
GI50 (NCI-H226): 17.3 µM (inactive)
GI50 (Hs-578T): 18.3 µM (inactive)
GI50 (RXF 393): 17.3 µM (inactive)
GI50 (CAKI-1): 12.3 µM (inactive)
GI50 (UO-31): 15.4 µM (inactive)
GI50 (NCI-H23): 13.1 µM (inactive)
GI50 (HCT-15): 11.7 µM
GI50 (HCC 2998): 15.7 µM (inactive)
GI50 (SF-268): 15.8 µM (inactive)
GI50 (Malme-3M): 13 µM (inactive)
GI50 (HCT-116): 6.41 µM (inactive)
GI50 (MCF7): 15.1 µM (inactive)
GI50 (A549): 14.9 µM (inactive)
GI50 (OVCAR-3): 12.9 µM (inactive)
GI50 (T47D): 14.2 µM (inactive)
GI50 (MDA-N): 12.1 µM (inactive)
GI50 (HT-29): 16 µM (inactive)
GI50 (SF-539): 18.1 µM (inactive)
GI50 (MDA-MB-435): 11.4 µM (inactive)
GI50 (UACC-257): 13.5 µM (inactive)
GI50 (OVCAR-5): 15.5 µM (inactive)
GI50 (U-251): 13.1 µM (inactive)
GI50 (COLO 205): 16.7 µM (inactive)
GI50 (NCI-H460): 8.17 µM (inactive)
GI50 (SN12C): 17.3 µM (inactive)
GI50 (HOP-62): 14.4 µM (inactive)
GI50 (HOP-92): 6.87 µM (inactive)
GI50 (786-0): 16 µM (inactive)
GI50 (A498): 20.9 µM (inactive)
GI50 (IGROV-1): 14.1 µM (inactive)
GI50 (SR): 3.94 µM (inactive)
GI50 (NCI/ADR-RES): 13.4 µM (inactive)
GI50 (DU-145): 16.4 µM (inactive)
GI50 (KM12): 12 µM (inactive)
GI50 (TK-10): 17.5 µM (inactive)
GI50 (SF-295): 13.7 µM (inactive)
GI50 (MDA-MB-231): 15.3 µM (inactive)
GI50 (NCI-H522): 14.7 µM (inactive)
GI50 (OVCAR-8): 15.6 µM (inactive)
GI50 (UACC-62): 11.8 µM (inactive)
GI50 (PC-3): 14.7 µM (inactive)
GI50 (LOX IMVI): 15 µM (inactive)
GI50 (SK-MEL-2): 15 µM (inactive)
GI50 (SNB-75): 13 µM (inactive)
GI50 (SW-620): 13.2 µM (inactive)
GI50 (OVCAR-4): 15 µM (inactive)
